Measurements as given in the NIST ThermoML archive (doi:10.1021/acs.jced.6b00202).

COC(C)(C)C [2-methoxy-2-methylpropane]
Liquid, Brillouin light scattering
Conditions	speed of sound [m/s]
388.22 K, 1000 kPa	646.4
388.24 K, 2500 kPa	670.7
388.24 K, 10000 kPa	768.1
388.25 K, 8500 kPa	751.1
393.11 K, 5500 kPa	691.8
393.13 K, 1000 kPa	619
393.13 K, 4000 kPa	669.1
393.13 K, 8500 kPa	736.3
393.16 K, 2500 kPa	643.2
393.22 K, 7000 kPa	714.5
393.22 K, 10000 kPa	753.4
398.1 K, 5500 kPa	671.4
398.11 K, 1000 kPa	594.9
398.18 K, 2500 kPa	624.4
398.18 K, 4000 kPa	647.1
398.2 K, 8500 kPa	715.9
398.24 K, 10000 kPa	733.5
398.25 K, 7000 kPa	692.8
403.07 K, 7000 kPa	672.1
403.11 K, 2500 kPa	602.6
403.12 K, 1000 kPa	574.7
403.12 K, 4000 kPa	627.2
403.14 K, 5500 kPa	649.2
403.14 K, 10000 kPa	716.1
403.16 K, 8500 kPa	697.5
408.09 K, 7000 kPa	657.5
408.16 K, 4000 kPa	605.6
408.19 K, 5500 kPa	631.8
408.21 K, 8500 kPa	679.5
408.23 K, 2500 kPa	576.4
408.24 K, 10000 kPa	697.8
413.06 K, 10000 kPa	682.3
413.08 K, 4000 kPa	585.4
413.14 K, 8500 kPa	661.5
413.16 K, 5500 kPa	612.9
413.19 K, 2500 kPa	557.9
413.24 K, 7000 kPa	638.1
418.07 K, 4000 kPa	565.2
418.07 K, 7000 kPa	617.5
418.08 K, 10000 kPa	661.5
418.11 K, 8500 kPa	639.1
418.19 K, 2500 kPa	535.7
418.23 K, 5500 kPa	588.6
423.05 K, 7000 kPa	595.1
423.06 K, 2500 kPa	511.7
423.06 K, 4000 kPa	541.9
423.11 K, 8500 kPa	624.1
423.12 K, 10000 kPa	647.8
423.19 K, 5500 kPa	571.4
428.11 K, 2500 kPa	485.7
428.14 K, 5500 kPa	549.7
428.15 K, 7000 kPa	575.1
428.18 K, 4000 kPa	520.9
428.19 K, 8500 kPa	605.5
428.2 K, 10000 kPa	625.5
433.05 K, 2500 kPa	463.5
433.05 K, 7000 kPa	560.1
433.08 K, 10000 kPa	610.8
433.18 K, 4000 kPa	498.5
433.22 K, 5500 kPa	530.9
433.22 K, 8500 kPa	586.5
438.11 K, 2500 kPa	443
438.13 K, 7000 kPa	540.4
438.13 K, 10000 kPa	590.9
438.14 K, 5500 kPa	507.9
438.16 K, 8500 kPa	569
438.24 K, 4000 kPa	477.2
443.06 K, 4000 kPa	454.3
443.08 K, 5500 kPa	487.7
443.12 K, 10000 kPa	575
443.14 K, 8500 kPa	548.7
443.18 K, 2500 kPa	418.1
443.23 K, 7000 kPa	519.9
448.06 K, 2500 kPa	394.3
448.07 K, 5500 kPa	467.5
448.16 K, 4000 kPa	435.5
448.22 K, 7000 kPa	500.2
448.23 K, 8500 kPa	529.7
448.23 K, 10000 kPa	557.1
453.07 K, 5500 kPa	448.8
453.18 K, 4000 kPa	411.5
453.18 K, 10000 kPa	544
453.2 K, 2500 kPa	372.4
453.21 K, 8500 kPa	515.2
453.24 K, 7000 kPa	483.8
458.06 K, 4000 kPa	389.5
458.08 K, 7000 kPa	464.6
458.12 K, 10000 kPa	524.8
458.18 K, 2500 kPa	350.8
458.22 K, 8500 kPa	497.9
458.24 K, 5500 kPa	426.1
463.1 K, 10000 kPa	507.9
463.13 K, 2500 kPa	326.7
463.14 K, 8500 kPa	480.9
463.16 K, 5500 kPa	409.6
463.23 K, 4000 kPa	368.2
463.25 K, 7000 kPa	445.2
468.06 K, 7000 kPa	427.3
468.1 K, 10000 kPa	491.9
468.15 K, 8500 kPa	459.5
468.19 K, 4000 kPa	347.2
468.22 K, 5500 kPa	389.7
473.07 K, 4000 kPa	324.5
473.11 K, 10000 kPa	479
473.12 K, 8500 kPa	443.1
473.15 K, 7000 kPa	408.5
473.22 K, 5500 kPa	366

Conditions	speed of sound [m/s]
393.16 K, Liquid, Brillouin Light Scattering	609.1
398.07 K, Gas, Brillouin light scattering	170
398.11 K, Liquid, Brillouin Light Scattering	580.1
403.24 K, Liquid, Brillouin Light Scattering	558
408.22 K, Gas, Brillouin light scattering	167.8
408.23 K, Liquid, Brillouin Light Scattering	537.6
413.2 K, Liquid, Brillouin Light Scattering	515.8
418.16 K, Gas, Brillouin light scattering	164.7
418.24 K, Liquid, Brillouin Light Scattering	494.4
423.15 K, Liquid, Brillouin Light Scattering	476
428.21 K, Gas, Brillouin light scattering	161.2
428.24 K, Liquid, Brillouin Light Scattering	453.8
433.05 K, Liquid, Brillouin Light Scattering	430.3
438.17 K, Gas, Brillouin light scattering	155.3
438.19 K, Liquid, Brillouin Light Scattering	405.8
443.09 K, Liquid, Brillouin Light Scattering	387.3
448.13 K, Gas, Brillouin light scattering	148.4
448.23 K, Liquid, Brillouin Light Scattering	360.3
453.1 K, Liquid, Brillouin Light Scattering	339.5
458.19 K, Liquid, Brillouin Light Scattering	313.6
458.29 K, Gas, Brillouin light scattering	139.8
463.17 K, Gas, Brillouin light scattering	135.7
463.23 K, Liquid, Brillouin Light Scattering	287.1
468.18 K, Liquid, Brillouin Light Scattering	265
468.26 K, Gas, Brillouin light scattering	130.6
473.15 K, Gas, Brillouin light scattering	124.5
473.17 K, Liquid, Brillouin Light Scattering	236.5
478.08 K, Gas, Brillouin light scattering	119
478.08 K, Liquid, Brillouin Light Scattering	206.1
483.2 K, Liquid, Brillouin Light Scattering	177.7
483.29 K, Gas, Brillouin light scattering	111.8
488.11 K, Liquid, Brillouin Light Scattering	142.8
488.15 K, Gas, Brillouin light scattering	104.9
493.06 K, Liquid, Brillouin Light Scattering	103.7
493.15 K, Gas, Brillouin light scattering	96.9
